Test results as given in patent US7300950B2, “Pyrazole derivatives, their preparation and their use in pharmaceuticals” (Aventis Pharma Deutschland GmbH, priority 1997, dated 2007).

Columns and labels:
[1] = biological target: T1, soluble guanylate cyclase (sGC) isolated from bovine lung (Bos taurus, UniProt P16068+P19687); experiment: Activation of the soluble guanylate cyclase (cGMP enzyme immunoassay); format: biochemical; settings: n-fold stimulation of basal enzyme activity = [cGMP]test substance/[cGMP]control
T1 construct: The sGC which was employed had been isolated from bovine lung; from tissue; host or cells: bovine lung
T1 sequence (P16068 1-619): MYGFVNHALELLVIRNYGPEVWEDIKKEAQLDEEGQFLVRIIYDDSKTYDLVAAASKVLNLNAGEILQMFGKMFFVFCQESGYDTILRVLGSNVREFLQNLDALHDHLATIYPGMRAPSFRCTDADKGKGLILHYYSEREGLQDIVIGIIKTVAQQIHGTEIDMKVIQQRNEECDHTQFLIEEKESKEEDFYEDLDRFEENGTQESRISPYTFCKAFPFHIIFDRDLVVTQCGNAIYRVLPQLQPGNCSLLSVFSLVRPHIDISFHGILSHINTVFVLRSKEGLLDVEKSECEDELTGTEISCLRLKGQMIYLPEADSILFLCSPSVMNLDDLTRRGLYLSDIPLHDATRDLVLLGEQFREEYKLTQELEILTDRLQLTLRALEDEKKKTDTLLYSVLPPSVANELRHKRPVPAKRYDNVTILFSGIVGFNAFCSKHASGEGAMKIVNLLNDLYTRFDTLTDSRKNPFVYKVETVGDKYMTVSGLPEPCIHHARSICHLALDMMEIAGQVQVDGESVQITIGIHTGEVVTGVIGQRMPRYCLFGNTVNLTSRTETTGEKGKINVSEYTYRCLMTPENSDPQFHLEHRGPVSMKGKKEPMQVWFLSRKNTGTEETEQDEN
T1 sequence (P19687 1-691): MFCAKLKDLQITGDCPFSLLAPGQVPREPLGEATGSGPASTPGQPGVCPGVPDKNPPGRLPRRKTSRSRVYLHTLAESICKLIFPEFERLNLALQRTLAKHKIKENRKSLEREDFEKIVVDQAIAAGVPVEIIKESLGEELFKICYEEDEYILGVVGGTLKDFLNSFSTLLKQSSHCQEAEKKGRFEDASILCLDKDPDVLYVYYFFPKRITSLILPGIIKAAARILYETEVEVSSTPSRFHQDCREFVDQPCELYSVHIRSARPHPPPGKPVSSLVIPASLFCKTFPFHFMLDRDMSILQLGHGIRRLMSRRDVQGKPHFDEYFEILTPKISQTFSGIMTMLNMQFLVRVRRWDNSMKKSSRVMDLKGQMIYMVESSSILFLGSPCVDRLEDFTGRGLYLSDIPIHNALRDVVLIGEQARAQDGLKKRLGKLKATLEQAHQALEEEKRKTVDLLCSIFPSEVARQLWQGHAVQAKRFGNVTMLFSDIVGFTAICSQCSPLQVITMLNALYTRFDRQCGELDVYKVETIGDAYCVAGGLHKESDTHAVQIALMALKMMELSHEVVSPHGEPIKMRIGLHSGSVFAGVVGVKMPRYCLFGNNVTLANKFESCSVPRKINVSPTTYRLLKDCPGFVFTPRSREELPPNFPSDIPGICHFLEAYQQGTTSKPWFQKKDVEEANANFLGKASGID
Procedure: 1. Activation of the Soluble Guanylate Cyclase
The activation of the sGC, which catalyzes the conversion of GTP into cyclic guanosine monophosphate cGMP and pyrophosphate, by the compounds according to the invention was quantified with the aid of an enzyme immunoassay “EIA” from Amersham. For this purpose the substances to be tested were initially incubated with sGC in microtiter plates, and the amount of the cGMP formed was then determined.
The test solutions (100 μl per well) contained 50 mM triethanolamine “TEA” buffer (pH 7.5), 3 mM MgCl2, 3 mM reduced glutathione “GSH,” 0.1 mM GTP, 1 mM 3-isobutyl-1-methylxanthine “IBMX,” suitably diluted enzyme solution and the substance to be tested or, in the control experiments, the solvent. […] The DMSO concentration in the test solution was 5% (v/v). The reaction was initiated by addition of the sGC. The reaction mixture was incubated at 37° C. for 15 to 20 minutes and then stopped by ice-cooling and addition of the stop reagent (50 mM EDTA, pH 8.0). An aliquot of 50 μl was taken and used for determining the cGMP content using the acetylation protocol of the Amersham cGMP-EIA kit. The absorption of the samples was measured at 450 nm (reference wavelength 620 nm) in a microtiter plate reader. The cGMP concentration was determined using a standard curve which was obtained under the same test conditions. […] This is calculated using the formula: n-fold stimulation=[cGMP]test substance/[cGMP]control.

rat aorta rings = experiment: Relaxation of rat aorta (phenylephrine-precontracted aorta rings, organ bath); design: species or system rat (Wistar-Kyoto); settings: concentration by which phenylephrine (1 μM) contraction is inhibited by 50% (50% relaxation)
From the text: 2. Relaxation of Rat Aorta
For this test, normotensive male Wistar-Kyoto rats were sacrificed by a blow to the neck. The abdominal cavity and the thorax were opened by a medium sternotomy. The descending aorta was subsequently removed, freed of connective tissue and divided into 8 rings of a length of approximately 4 mm. The tip of a pair of tweezers was introduced into the lumen of 4 of the 8 rings. The endothelium was removed by carefully rolling the rings over the tip of the pair of tweezers. All 8 aorta rings (4 with endothelium and 4 without endothelium) were subsequently suspended in an organ bath (Schuler-Organbad; Hugo Sachs Elektronik) at a constant temperature of 37° C. for the isometric determination of the contractile tone. For 30 minutes, the rings were calibrated at a resting tension of 1 g in carbonated (95% O2; 5% CO2) Krebs-Henseleit solution (composition: Na^+ 144.0 mM; K^+ 5.9 mM; Cl^− 126.9 mM; Ca^2+ 1.6 mM; Mg^2+ 1.2 mM; H2PO4^− 1.2 mM; SO4^2− 1.2 mM; HCO3^− 25.0 mM; D-glucose 11.1 mM) of pH 7.4. […] After a 30-minute washing period, the rings were then again precontracted by addition of phenylephrine (1 μM), and the relaxing action of the test substances of the formula I was determined by administration of cumulative doses of the latter. The data were evaluated by standard methods. […]

Row | melting point | SMILES | other results
1 | 167 to 168 °C | O=C(Nc1nccs1)c1ccc(-c2nn(Cc3ccccc3)c3ccccc23)o1 [Example 25, 1-Benzyl-3-(5-(N-(2-thiazolyl)carbamoyl)-2-furyl)indazole] | n-fold stimulation ([1]; concentration 10 μM): 2.8-fold
2 | 138 to 143 °C | O=C(Nc1ccccc1)c1ccc(-c2nn(Cc3ccccc3)c3ccccc23)o1 [Example 21, 1-Benzyl-3-(5-(N-phenylcarbamoyl)-2-furyl)indazole] | n-fold stimulation ([1]; concentration 100 μM): 3-fold
3 | 196 to 197 °C | O=C(Nc1ccccc1O)c1ccc(-c2nn(Cc3ccccc3)c3ccccc23)o1 [Example 29, 1-Benzyl-3-(5-(N-(2-hydroxyphenyl)carbamoyl)-2-furyl)indazole] | 
4 | 202 to 205 °C | O=C(Nc1ccc(Cl)cc1)c1ccc(-c2nn(Cc3ccccc3)c3ccccc23)o1 [Example 22, 1-Benzyl-3-(5-(N-(4-chlorophenyl)carbamoyl)-2-furyl)indazole] | 
5 | 175 °C | COc1ccc(NC(=O)c2ccc(-c3nn(Cc4ccccc4)c4ccccc34)o2)cc1 [Example 28, 1-Benzyl-3-(5-(N-(4-methoxyphenyl)carbamoyl)-2-furyl)indazole] | 
6 | 165 °C | O=C(NC1CCCCC1)c1ccc(-c2nn(Cc3ccccc3)c3ccccc23)o1 [Example 33, 1-Benzyl-3-(5-(N-cyclohexylcarbamoyl)-2-furyl)indazole] | 
7 | 130 °C | CN(C)CCNC(=O)c1ccc(-c2nn(Cc3ccccc3)c3ccccc23)o1 [Example 35, 1-Benzyl-3-(5-(N-(2-dimethylaminoethyl)carbamoyl)-2-furyl)indazole] | 
8 | 128 to 129 °C | CCOC(=O)c1ccc(-c2nn(-c3cc(C(F)(F)F)cc(C(F)(F)F)c3)c3ccccc23)o1 [Example 5, 3-(5-Ethoxycarbonyl-2-furyl)-1-(3,5-bis(trifluoromethyl)phenyl)indazole] | 
9 | 119 to 127 °C | CC(C)N(CCNC(=O)c1ccc(-c2nn(Cc3ccccc3)c3ccccc23)o1)C(C)C [Example 36, 1-Benzyl-3-(5-(N-(2-diisopropylaminoethyl)carbamoyl)-2-furyl)indazole] | 
10 | 138 to 139 °C | OC(c1ccccc1)c1ccc(-c2nn(Cc3ccccc3)c3ccccc23)o1 (stereo not shown) [Example 43, 1-Benzyl-3-(5-(1-hydroxy-1-phenylmethyl)-2-furyl)indazole] | 
11 | 219 to 222 °C | NC(=O)CNC(=O)c1ccc(-c2nn(Cc3ccccc3)c3ccccc23)o1 [Example 37, 1-Benzyl-3-(5-(N-(carbamoylmethyl)carbamoyl)-2-furyl)indazole] | 
12 | 156 °C | CC(C)NC(=O)c1ccc(-c2nn(Cc3ccccc3)c3ccccc23)o1 [Example 31, 1-Benzyl-3-(5-(N-isopropylcarbamoyl)-2-furyl)indazole] | 
13 | 190 °C | CN(C(=O)c1ccc(-c2nn(Cc3ccccc3)c3ccccc23)o1)c1ccccc1 [Example 27, 1-Benzyl-3-(5-(N-methyl-N-phenylcarbamoyl)-2-furyl)indazole] | 
14 | 167 °C | O=C(Nc1ccc2ccccc2c1)c1ccc(-c2nn(Cc3ccccc3)c3ccccc23)o1 [Example 24, 1-Benzyl-3-(5-(N-(2-naphthyl)carbamoyl)-2-furyl)indazole] | 
15 | 136 to 138 °C | OCc1ccc(-c2nn(-c3cc(C(F)(F)F)cc(C(F)(F)F)c3)c3ccccc23)o1 [Example 6, 3-(5-Hydroxymethyl-2-furyl)-1-(3,5-bis(trifluoromethyl)phenyl)indazole] | n-fold stimulation ([1]; concentration 10 μM): 3.3-fold
16 | 160 °C | O=C(NCc1ccccn1)c1ccc(-c2nn(Cc3ccccc3)c3ccccc23)o1 [Example 38, 1-Benzyl-3-(5-(N-(2-pyridylmethyl)carbamoyl)-2-furyl)indazole] | 
17 | 140 to 143 °C | O=C(NOCc1ccccc1)c1ccc(-c2nn(Cc3ccccc3)c3ccccc23)o1 [Example 26, 1-Benzyl-3-(5-(N-(benzyloxy)carbamoyl)-2-furyl)indazole] | 
18 | 152 °C | CCCNC(=O)c1ccc(-c2nn(Cc3ccccc3)c3ccccc23)o1 [Example 32, 1-Benzyl-3-(5-(N-(n-propyl)carbamoyl)-2-furyl)indazole] | 
19 |  | CNC(=O)c1ccc(-c2nn(Cc3ccccc3)c3ccccc23)o1 [Example 40, 1-Benzyl-3-(5-(N-methylcarbamoyl)-2-furyl)indazole] | IC50 (rat aorta rings; Ring with endothelium): 2400 nM; IC50 (rat aorta rings; Ring without endothelium): 200 nM; n-fold stimulation ([1]; concentration 100 μM): 2.4-fold
20 | 256 to 257 °C | O=C(O)c1ccc(-c2nn(-c3cc(C(F)(F)F)cc(C(F)(F)F)c3)c3ccccc23)o1 [Example 4, 3-(5-Carboxy-2-furyl)-1-(3,5-bis(trifluoromethyl)phenyl)indazole] | 
21 |  | O=C(OCCO)c1ccc(-c2nn(Cc3ccccc3)c3ccccc23)o1 [Example 7, 1-Benzyl-3-(5-((2-hydroxyethoxy)carbonyl)-2-furyl)indazole] | n-fold stimulation ([1]; concentration 100 μM): 5.5-fold
22 | 113 to 124 °C | O=C(NCc1ccccc1)c1ccc(-c2nn(Cc3ccccc3)c3ccccc23)o1 [Example 34, 1-Benzyl-3-(5-(N-benzylcarbamoyl)-2-furyl)indazole] | 
23 | 204 to 208 °C | O=C(Nc1ccc([N+](=O)[O-])cc1)c1ccc(-c2nn(Cc3ccccc3)c3ccccc23)o1 [Example 23, 1-Benzyl-3-(5-(N-(4-nitrophenyl)carbamoyl)-2-furyl)indazole] | 
